This passage reports DC50 and GI50 results from patent publication US20240238424A1, “HETEROBIFUNCTIONAL COMPOUNDS AND METHODS OF TREATING DISEASE” (Halda Therapeutics OpCo, Inc., priority 2021, published 2024).

The DC50 is the concentration giving 50% degradation. As a reminder, the GI50 is the concentration at which growth is held to half of that of the control.

The target in one assay is T1, GSPT1 (Homo sapiens, UniProt P15170+Q96SW2).
T1 construct: host or cells: HEK293 LgBiT cell line
T1 sequence (P15170 whole entry): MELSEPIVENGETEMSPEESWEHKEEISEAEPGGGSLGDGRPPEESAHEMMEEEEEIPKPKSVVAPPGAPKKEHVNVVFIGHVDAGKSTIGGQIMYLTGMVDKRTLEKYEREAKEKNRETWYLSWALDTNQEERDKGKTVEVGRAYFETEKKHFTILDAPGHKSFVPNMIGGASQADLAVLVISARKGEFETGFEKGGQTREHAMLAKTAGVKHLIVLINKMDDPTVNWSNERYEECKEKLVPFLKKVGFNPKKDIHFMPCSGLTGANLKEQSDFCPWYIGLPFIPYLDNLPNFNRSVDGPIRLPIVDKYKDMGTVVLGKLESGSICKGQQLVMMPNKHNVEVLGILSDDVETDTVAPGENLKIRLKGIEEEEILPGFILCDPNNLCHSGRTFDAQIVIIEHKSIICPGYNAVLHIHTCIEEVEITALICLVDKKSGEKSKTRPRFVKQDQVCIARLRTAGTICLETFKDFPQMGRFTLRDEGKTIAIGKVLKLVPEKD
T1 sequence (Q96SW2 whole entry): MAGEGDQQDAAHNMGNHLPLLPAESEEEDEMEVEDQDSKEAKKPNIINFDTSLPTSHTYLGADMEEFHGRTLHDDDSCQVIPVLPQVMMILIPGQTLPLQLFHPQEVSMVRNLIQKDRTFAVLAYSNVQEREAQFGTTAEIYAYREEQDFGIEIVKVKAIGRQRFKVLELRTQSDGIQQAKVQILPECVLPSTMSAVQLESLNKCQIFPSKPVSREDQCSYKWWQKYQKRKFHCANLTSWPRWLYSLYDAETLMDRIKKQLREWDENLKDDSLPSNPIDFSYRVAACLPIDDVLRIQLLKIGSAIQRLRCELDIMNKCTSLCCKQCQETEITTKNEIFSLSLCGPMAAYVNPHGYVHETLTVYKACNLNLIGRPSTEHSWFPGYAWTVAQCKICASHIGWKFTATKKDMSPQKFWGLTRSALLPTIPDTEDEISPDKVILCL
T1 sequence (Q16531 whole entry partner): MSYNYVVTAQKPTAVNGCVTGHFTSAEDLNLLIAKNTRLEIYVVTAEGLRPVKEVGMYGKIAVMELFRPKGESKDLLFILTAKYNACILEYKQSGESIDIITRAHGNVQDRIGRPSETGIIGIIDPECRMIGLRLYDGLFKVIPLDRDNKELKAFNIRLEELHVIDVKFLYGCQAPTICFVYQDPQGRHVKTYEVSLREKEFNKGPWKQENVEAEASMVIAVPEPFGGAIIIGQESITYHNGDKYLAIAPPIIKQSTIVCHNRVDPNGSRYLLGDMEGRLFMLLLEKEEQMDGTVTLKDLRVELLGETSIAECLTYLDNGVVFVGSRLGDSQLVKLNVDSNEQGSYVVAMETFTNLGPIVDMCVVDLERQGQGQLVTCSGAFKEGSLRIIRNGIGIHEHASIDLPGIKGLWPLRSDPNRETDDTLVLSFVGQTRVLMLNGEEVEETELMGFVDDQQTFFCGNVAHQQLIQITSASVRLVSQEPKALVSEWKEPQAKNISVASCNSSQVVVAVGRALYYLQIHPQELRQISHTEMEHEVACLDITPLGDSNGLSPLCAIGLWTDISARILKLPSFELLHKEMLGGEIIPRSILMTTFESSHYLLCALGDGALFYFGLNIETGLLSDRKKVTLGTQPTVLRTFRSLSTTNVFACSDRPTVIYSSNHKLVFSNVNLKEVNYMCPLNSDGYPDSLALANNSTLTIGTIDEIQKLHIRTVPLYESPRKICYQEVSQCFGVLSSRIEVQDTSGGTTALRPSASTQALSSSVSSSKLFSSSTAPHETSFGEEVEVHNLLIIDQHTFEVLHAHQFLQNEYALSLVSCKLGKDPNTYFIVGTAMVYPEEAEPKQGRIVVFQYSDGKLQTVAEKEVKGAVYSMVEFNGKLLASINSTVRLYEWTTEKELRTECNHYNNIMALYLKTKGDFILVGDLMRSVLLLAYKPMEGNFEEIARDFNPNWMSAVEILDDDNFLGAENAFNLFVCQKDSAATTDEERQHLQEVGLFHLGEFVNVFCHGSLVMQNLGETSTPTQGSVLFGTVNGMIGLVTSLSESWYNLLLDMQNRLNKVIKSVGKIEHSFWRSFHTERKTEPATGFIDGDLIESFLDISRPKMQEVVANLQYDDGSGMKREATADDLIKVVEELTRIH
In words: GSPT1 HiBit degradation assay. Conditions: Table 3; HEK293 LgBiT cells expressing GSPT1_HiBiT, luminescence after 6 hours. In kind it is cell-based. An excerpt: Promega developed a HEK293 cell line that constitutively expresses LgBiT protein and GSPT1_HiBiT fusion protein. When both proteins are present, the HiBiT portion of the fusion protein combines with LgBiT protein to form a functional luciferase enzyme. Endurazine, a cell permeable small molecule, is converted by cellular esterases into furimazine, which the luciferase enzyme uses as a substrate to generate luminescence. When GSPT1 is degraded, the HiBit is also degraded. This prevents formation of fully functional luciferase, leading to a loss in luminescence. GSPT1 degradation therefore correlates with a decrease in luminescence and can be measured continuously over time. The concentration of compound at which 50% GSPT1 degradation occurs (DC50) was calculated using this system.
• HEK293 LgBiT Cell line (Promega Custom) • Endurazine Substrate (Promega Cat. #N2570) • DMEM (Gibco Cat. #11995) • Penicillin/Streptomycin (Gibco Cat. #15140-122) • Heat Inactivated Fetal Bovine Serum (Gibco Cat. #A38400-01) • Hygromycin B (Gibco Cat. #10-687-010) • 384 Well TC Treated White Microplate (Perkin Elmer Cat. #6007680)
HEK293 LgBiT cells were cultured in DMEM Media supplemented with 10% FBS, 5% Pen/Strep, 200 μg/ml hygromycin and stored in an incubator set at 37° C. and 5% CO2. 18-24 hours prior to compound treatment, HEK293 LgBiT cells were seeded at 1000 cells/well in a 384-well microplate in 25 μl complete media. The plate was spun at 300 g for 30 seconds and stored in the incubator overnight. The next day, compounds were titrated in DMSO and added to media supplemented with endurazine substrate. A 25 ul aliquot of 2× compound/endurazine in media were then added to the 384-well microplate with seeded cells. (Endurazine was used at a final concentration of 0.5×). The plate was spun at 300 g for 30 seconds and stored in the incubator. After 6 hours the plate was read on a Perkin Elmer MultiMode Plate Reader Envision 2105 to measure luminescence signal.
In general terms: HiBiT is a short tag that completes a luciferase, so light tracks the accessible tagged protein.
For `CC1(C)[C@H](NC(=O)c2ccc(OCCOCCOCCOCCOCCOCCOCCOCCOCCc3cc(Cl)cc(NC(=O)NCc4ccc5c(c4)CN(C4CCC(=O)NC4=O)C5=O)c3)cc2)C(C)(C)[C@H]1Oc1ccc(C#N)c(Cl)c1` (some centres unmarked) [Compound I-28], the DC50 fell in the range of 0.25 to 5 µM. Consider `CCN(CCOCCOCCOCCOCCOCCOCCCCCCCCCCCCCCc1cc(Cl)cc(NC(=O)NCc2ccc3c(c2)CN(C2CCC(=O)NC2=O)C3=O)c1)CCOc1ccc(C(=O)c2c(-c3ccc(O)cc3)sc3cc(O)ccc23)cc1` (centres unmarked) [Compound I-56], for which the half-maximal degradation concentration (DC50) is > 10 µM. Consider `C=CC(=O)Nc1cc(Nc2nccc(-c3cn(C)c4ccccc34)n2)c(OC)cc1N(C)CCN(C)CCOCCOCCOCCOCCOCCOCCOCCOCCc1cc(Cl)cc(NC(=O)NCc2ccc3c(c2)CN(C2CCC(=O)NC2=O)C3=O)c1` (centres unmarked) [Compound I-35], for which the DC50 is > 10 µM. `C=CC(=O)Nc1cc(Nc2nccc(-c3cn(C)c4ccccc34)n2)c(OC)cc1N(C)CCN(C)CCOCCOCCOCCOCCOCCOCCOc1cc(Cl)cc(NC(=O)NCc2ccc3c(c2)CN(C2CCC(=O)NC2=O)C3=O)c1` (centres unmarked) [Compound I-33] registered a DC50 of 5 to 10 µM. Same read-out and setting: for `CCN(CCCCCCCCc1cc(Cl)cc(NC(=O)NCc2ccc3c(c2)CN(C2CCC(=O)NC2=O)C3=O)c1)CCOc1ccc(C(=O)c2c(-c3ccc(O)cc3)sc3cc(O)ccc23)cc1` (centres unmarked) [Compound I-58] the value was < 0.25 µM; for `Cc1c(CC(=O)N(C)C)ccc(NC(=O)c2nn([C@H]3CCCN(C(=O)/C=C/CN(C)CCOCCOCCOCCOCCOCCOCCOCCOCCOCCOCCCCCCCCc4cc(Cl)cc(NC(=O)NCc5ccc6c(c5)CN(C5CCC(=O)NC5=O)C6=O)c4)C3)c3ncnc(N)c23)c1C` (some centres unmarked) [Compound I-66], 0.25 to 5 µM; for `C=CC(=O)Nc1cc(Nc2nccc(-c3cn(C)c4ccccc34)n2)c(OC)cc1N(C)CCN(C)CCOCCOCCOCCOCCOCCOCCc1cc(Cl)cc(NC(=O)NCc2ccc3c(c2)CN(C2CCC(=O)NC2=O)C3=O)c1` (centres unmarked) [Compound I-34], 5 to 10 µM. `C=CC(=O)Nc1cc(Nc2nccc(-c3cn(C)c4ccccc34)n2)c(OC)cc1N(C)CCN(C)CCOCCOCCOCCOCCOCCOCCOCCOCCOCCOCCOc1cc(Cl)cc(NC(=O)NCc2ccc3c(c2)CN(C2CCC(=O)NC2=O)C3=O)c1` (centres unmarked) [Compound I-60] gave a 50% degradation concentration (DC50) of 5 to 10 µM.

The assay is the same for the next values; noted with them: Table 3A; HEK293 LgBiT cells expressing GSPT1_HiBiT, luminescence after 6 hours.
In turn, `CN(C/C=C/C(=O)N1CCN(c2nc(OC[C@@H]3CCCN3C)nc3c2CCN(c2cccc4cccc(Cl)c24)C3)C[C@@H]1CC#N)CCOCCOCCOCCOCCOCCCCCc1cc(Cl)cc(NC(=O)NCc2ccc3c(c2)CN(C2CCC(=O)N(C)C2=O)C3=O)c1` (some centres unmarked) [Compound I-116] returned a half-maximal degradation concentration (DC50) of 0.25 to 5 µM. Regarding `C=C(F)C(=O)N1CCN(c2nc(OC[C@@H]3CCCN3CCCOCCOCCOCCOCCOCCCCCc3ccc(Cl)cc3NC(=O)NCc3ccc4c(c3)CN(C3CCC(=O)NC3=O)C4=O)nc3c2CCN(c2cccc4cccc(Cl)c24)C3)C[C@@H]1CC#N` (some centres unmarked) [Compound I-140], the DC50 was 0.25 to 5 µM. In the case of `CCC(=O)N1CCN(c2nc(OC[C@@H]3CCCN3CCOCCOCCOCCOCCOCCOCCOCCOCCOCCOCCOCCOCCOCCOCCCCCCCCc3cc(Cl)cc(NC(=O)NCc4ccc5c(c4)CN(C4CCC(=O)NC4=O)C5=O)c3)nc3c2CCN(c2cccc4cccc(Cl)c24)C3)C[C@@H]1CC#N` (some centres unmarked) [Compound I-106], the DC50 lay in the range of 0.25 to 5 µM. On the same count and under the same terms, under `C=CC(=O)N1CCN(c2nc(=O)n(-c3c(C)cc(OCCOCCOCCOCCOCCOCCOCCOCCOCCOCCOCCOCCCCCc4cc(Cl)cc(NC(=O)NCc5ccc6c(c5)CN(C5CCC(=O)NC5=O)C6=O)c4)nc3C(C)C)c3nc(-c4c(O)cccc4F)c(F)cc23)[C@@H](C)C1` (some centres unmarked) [Compound I-165] stands 0.25 to 5 µM. Take `CN(C/C=C/C(=O)N1CCN(c2nc(OC[C@@H]3CCCN3C)nc3c2CCN(c2cccc4cccc(Cl)c24)C3)C[C@@H]1CC#N)CCOCCOCCOCCOCCOCCCCCc1cc(Cl)cc(NC(=O)NCc2ccc3c(c2)CN(C2CCC(=O)NC2=O)C3=O)c1` (some centres unmarked) [Compound I-108]: the 50% degradation concentration (DC50) is 0.25 to 5 µM. As for `Cc1c(NC(=O)c2ccc(C3CC3)cc2F)cc(F)cc1-c1ncnc(N)c1OCCN(C)C(=O)/C=C/CN(C)CCOCCOCCOCCOCCCCCCCCc1cc(Cl)cc(NC(=O)NCc2ccc3c(c2)CN(C2CCC(=O)NC2=O)C3=O)c1` (centres unmarked) [Compound I-96], the DC50 was < 0.25 µM. For `CN(C/C=C/C(=O)N1CCC[C@@H](n2nc(-c3ccc(Oc4ccccc4)cc3)c3c(N)ncnc32)C1)CCOCCOCCOCCOCCOCCCCCc1cc(Cl)cc(NC(=O)NCc2ccc3c(c2)CN(C2CCC(=O)NC2=O)C3=O)c1` (some centres unmarked) [Compound I-104], the half-maximal degradation concentration (DC50) lay in the range of 0.25 to 5 µM. As to `CCC(=O)N1CCN(c2nc(OC[C@@H]3CCCN3CCOCCOCCOCCOCCOCCOCCOCCOCCOCCOCCOCCOCCOCCOCCCCCCCCc3cc(Cl)cc(NC(=O)NCc4ccc5c(c4)CN(C4CCC(=O)NC4=O)C5=O)c3)nc3c2CCN(c2cccc4cccc(Cl)c24)C3)CC1CC#N` (some centres unmarked) [Compound I-103], the DC50 was in the range of 0.25 to 5 µM. `C=C(F)C(=O)N1CCN(c2nc(OC[C@@H]3C[C@@H](OCC(=O)N(C)CCOCCOCCOCCOCCOCCOCCOCCCCCc4cc(Cl)cc(NC(=O)NCc5ccc6c(c5)CN(C5CCC(=O)NC5=O)C6=O)c4)CN3C)nc3c2CCN(c2cccc4cccc(Cl)c24)C3)C[C@@H]1CC#N` (some centres unmarked) [Compound I-136]: the DC50 lay in the range of 0.25 to 5 µM. On the same count and under the same terms, for `C=CC(=O)N1CCN(c2nc(=O)n(-c3c(C)cc(OCCOCCOCCOCCOCCOCCOCCOCCOCCOCCCCCc4cc(Cl)cc(NC(=O)NCc5ccc6c(c5)CN(C5CCC(=O)NC5=O)C6=O)c4)nc3C(C)C)c3nc(-c4c(O)cccc4F)c(F)cc23)[C@@H](C)C1` (some centres unmarked) [Compound I-154] the value was 0.25 to 5 µM; for `CN(C/C=C/C(=O)N1CCN(c2nc(OC[C@@H]3CCCN3C)nc3c2CCN(c2cccc4cccc(Cl)c24)C3)C[C@@H]1CC#N)CCOCCOCCOCCOCCOCCOCCCCCCCCc1cc(Cl)cc(NC(=O)NCc2ccc3c(c2)CN(C2CCC(=O)NC2=O)C3=O)c1` (some centres unmarked) [Compound I-84], < 0.25 µM.

For the molecule `CCN(CCOCCOCCOCCOCCCCCCCCc1cc(Cl)cc(NC(=O)NCc2ccc3c(c2)CN(C2CCC(=O)NC2=O)C3=O)c1)CCOc1ccc(C(=O)c2c(-c3ccc(O)cc3)sc3cc(O)ccc23)cc1` (centres unmarked) [Compound I-77], the half-maximal degradation concentration (DC50) is < 0.25 µM. In turn, `CN(C/C=C/C(=O)N1CCC[C@@H](n2nc(-c3ccc(Oc4ccccc4)cc3)c3c(N)ncnc32)C1)CCOCCOCCOCCOCCOCCOCCOCCOCCOCCOCCCCCCCCc1cc(Cl)cc(NC(=O)NCc2ccc3c(c2)CN(C2CCC(=O)NC2=O)C3=O)c1` (some centres unmarked) [Compound I-83] displayed a DC50 of 0.25 to 5 µM.

Regarding `C=C(F)C(=O)N1CCN(c2nc(OC[C@@H]3CCCN3CCCOCCOCCOCCOCCOCCOCCOCCOCCCCCCCCc3cc(Cl)cc(NC(=O)NCc4ccc5c(c4)CN(C4CCC(=O)NC4=O)C5=O)c3)nc3c2CCN(c2cccc4cccc(Cl)c24)C3)C[C@@H]1CC#N` (some centres unmarked) [Compound I-78], the 50% degradation concentration (DC50) is < 0.25 µM. On the same count and under the same terms, under `Cc1c(NC(=O)c2ccc(C3CC3)cc2F)cc(F)cc1-c1ncnc(N)c1OCCN(C)C(=O)/C=C/CN(C)CCOCCOCCOCCOCCOCCOCCOCCOCCOCCCCCc1cc(Cl)cc(NC(=O)NCc2ccc3c(c2)CN(C2CCC(=O)NC2=O)C3=O)c1` (centres unmarked) [Compound I-129] stands 0.25 to 5 µM; under `Cc1ccc(NC(=O)NC(CCCCCOCCOCCOCCOCCOCCN(C)C/C=C/C(=O)N2CCN(c3nc(OC[C@@H]4CCCN4C)nc4c3CCN(c3cccc5cccc(Cl)c35)C4)C[C@@H]2CC#N)c2ccc3c(c2)CN(C2CCC(=O)NC2=O)C3=O)cc1Cl` (some centres unmarked) [Compound I-114], > 10 µM; under `Cc1c(NC(=O)c2ccc(C3CC3)cc2F)cc(F)cc1-c1ncnc(N)c1OCCN(C)C(=O)/C=C/CN(C)CCOCCOCCOCCOCCOCCOCCOCCCCCc1cc(Cl)cc(NC(=O)NCc2ccc3c(c2)CN(C2CCC(=O)NC2=O)C3=O)c1` (centres unmarked) [Compound I-113], 0.25 to 5 µM.

A further assay has as its system HeLa KRas G12C cells. In words: Cellular growth inhibition assay (CTG), HeLa KRas G12C cells. The settings on record: Homo sapiens, CellTiter-Glo 2.0, day-5. It is filed as cell-based. How it is done: Cells were seeded in Poly-D-lysine-treated 384-well white plates, with 25 μL cell suspension at 250 cells/well for continuous treatments, and 1000 cells/well for washout treatments. Plates were spun at 300×g for 3 minutes, and cells were cultured at 37° C. with 5% CO2 in a humidified tissue culture incubator.
After 24 hours, the test compounds were diluted with cell culture medium in 96 deep well plates. DMSO was used as a negative control. A 25 μL aliquot of compound-containing medium was added in each well, at a final top concentration of 10 μM or 30 μM test compound, with 3-fold dilutions. For washout assays, after 4 hours, cell medium with compound was removed, and the cells were washed with 75p L fresh medium. Plates were then spun at 300×g for 3 minutes and replaced with 50 μL fresh medium in each well. Plates were then spun at 300×g for 3 minutes again and cultured at 37° C. with 5% CO2.
At day-0 and day-5 of compound treatments, cell viability was quantified with CellTiter-Glo 2.0 (Promega). After equilibrating cell plates at room temperature for 30 minutes, 25 μL CellTiter-Glo 2.0 reagent was dispensed into each well (on top of 50 μL of cell culture). Plates were mixed on a shaker for 2 minutes at 500 rpm, followed by a 10-minute incubation at room temperature. Luminescence readings were measured with an EnVision Plate Reader. Data was normalized to DMSO treated day-0 cell wells. A four-parameter non-linear regression curve fit was applied to dose-response data in Prism to determine the half maximal growth inhibitory concentration (GI50) of each compound.
(In general: ATP-based viability assays read luminescence as a measure of living cells.)
For `CN(C/C=C/C(=O)N1CCN(c2nc(OC[C@@H]3CCCN3C)nc3c2CCN(c2cccc4cccc(Cl)c24)C3)C[C@@H]1CC#N)CCOCCOCCOCCOCCOCCCCCc1cc(Cl)cc(NC(=O)NCc2ccc3c(c2)CN(C2CCC(=O)N(C)C2=O)C3=O)c1` (some centres unmarked) [Compound I-116], the 50% growth inhibitory concentration (GI50) lay within 1 to 3 µM.
